Reference: patent publication US10556888B2, “Pyrazole compounds or salts thereof, preparation methods therefor, herbicidal compositions and use thereof” (QINGDAO KINGAGROOT CHEMICAL COMPOUNDS CO., LTD, priority 2015, dated 2020)

Columns and labels:
Format in all cases: in vivo
Digitaria sanguinalis = assay: Control experiment, test in post-emergence stage; design: key: Level 10: completely dead; Level 9: above 90% growth inhibition rate; Level 8: above 80% growth inhibition rate; Level 7: above 70% growth inhibition rate; Level 6: above 60% growth inhibition rate; Level 5: above 50% growth inhibition rate; Level 4: above 30% growth inhibition rate; Level 3: above 20% growth inhibition rate; Level 2: above 10% growth inhibition rate; Level 1: above 1-10% growth inhibition rate; Level 0: no effect; settings: 5-6 leaf stage, 15 g/ha, observe time 25 day
Description: (§1) Test in post-emergence stage: seeds of monocotyledonous weeds and corn were put into a plastic pot loaded with soil, covered with 0.5-2 cm soil, and allowed to grow in good greenhouse environment. The test plants were treated at 5-6 leaf stage 4 weeks after sowing. The test compounds of the present invention were dissolved with acetone respectively, then added with tween 80, diluted by a certain amount of water to reach a certain concentration. The solution was sprayed to the plants by a spray tower. The test application rate was 15 g/ha and the observe time was 25 day.

Setaria viridis = assay: Control experiment, test in post-emergence stage; design: key: Level 10: completely dead; Level 9: above 90% growth inhibition rate; Level 8: above 80% growth inhibition rate; Level 7: above 70% growth inhibition rate; Level 6: above 60% growth inhibition rate; Level 5: above 50% growth inhibition rate; Level 4: above 30% growth inhibition rate; Level 3: above 20% growth inhibition rate; Level 2: above 10% growth inhibition rate; Level 1: above 1-10% growth inhibition rate; Level 0: no effect; settings: 5-6 leaf stage, 15 g/ha, observe time 25 day
Description: as §1

Echinochloa crus-galli = assay: Control experiment, test in post-emergence stage; design: key: Level 10: completely dead; Level 9: above 90% growth inhibition rate; Level 8: above 80% growth inhibition rate; Level 7: above 70% growth inhibition rate; Level 6: above 60% growth inhibition rate; Level 5: above 50% growth inhibition rate; Level 4: above 30% growth inhibition rate; Level 3: above 20% growth inhibition rate; Level 2: above 10% growth inhibition rate; Level 1: above 1-10% growth inhibition rate; Level 0: no effect; settings: 5-6 leaf stage, 15 g/ha, observe time 25 day
Description: as §1

Corn = assay: Control experiment, test in post-emergence stage, crop safety; design: key: Level 10: completely dead; Level 9: above 90% growth inhibition rate; Level 8: above 80% growth inhibition rate; Level 7: above 70% growth inhibition rate; Level 6: above 60% growth inhibition rate; Level 5: above 50% growth inhibition rate; Level 4: above 30% growth inhibition rate; Level 3: above 20% growth inhibition rate; Level 2: above 10% growth inhibition rate; Level 1: above 1-10% growth inhibition rate; Level 0: no effect; settings: 5-6 leaf stage, 15 g/ha, observe time 25 day
Description: as §1

[1] = system: main crop (wheat, corn, rice, soybean, cotton, oilseed, millet and sorghum); assay: Post-emergence test experiment, main crops (Table 2); design: key: Level 10: completely dead; Level 9: above 90% growth inhibition rate; Level 8: above 80% growth inhibition rate; Level 7: above 70% growth inhibition rate; Level 6: above 60% growth inhibition rate; Level 5: above 50% growth inhibition rate; Level 4: above 30% growth inhibition rate; Level 3: above 20% growth inhibition rate; Level 2: above 10% growth inhibition rate; Level 1: above 1-10% growth inhibition rate; Level 0: no effect; settings: 15 g/ha, 3 weeks after spraying, greenhouse
Procedure, shortened: (§2)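 Weed and crop seeds (wheat, corn, rice, soybean, cotton, oilseed, millet, sorghum) grown in soil in greenhouse; sprayed at 2-3 leaf stage, 2-3 weeks after sowing, with compound in acetone/Tween 80/water. Effects assessed after 3 weeks further greenhouse culture.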

[2] = system: Monocotyledonous and dicotyledonous weed; assay: Post-emergence test experiment, weed control effect (Table 2); design: key to weed control effect, Setaria viridis (level) / weed control effect, Rorippa indica (level) / weed control effect, Abutilon theophrasti (level) / weed control effect, Echinochloa crus-galli (level) / weed control effect, Digitaria sanguinalis (level): Level 10: completely dead; Level 9: above 90% growth inhibition rate; Level 8: above 80% growth inhibition rate; Level 7: above 70% growth inhibition rate; Level 6: above 60% growth inhibition rate; Level 5: above 50% growth inhibition rate; Level 4: above 30% growth inhibition rate; Level 3: above 20% growth inhibition rate; Level 2: above 10% growth inhibition rate; Level 1: above 1-10% growth inhibition rate; Level 0: no effect; settings: 15 g/ha, 3 weeks after spraying, greenhouse
Procedure, shortened: as §2

[3] = system: Echinochloa crus-galli, Scirpus juncoides and Monochoria vaginalis; assay: Resistance tests on the collected weed seeds; settings: common rate; seeds collected from Heilongjing and Jiangsu Province of China
Source text: The seeds of Echinochloa crus-galli, Scirpus juncoides and Monochoria vaginalis were collected from Heilongjing and Jiangsu Province of China.

Compound | Digitaria sanguinalis (activity level) (Digitaria sanguinalis) | Setaria viridis (activity level) (Setaria viridis) | Echinochloa crus-galli (activity level) (Echinochloa crus-galli) | Corn (safety, activity level) (Corn) | effect on crop, corn (level) [1] | effect on crop, rice (level) [1] | effect on crop, wheat (level) [1] | weed control effect, Abutilon theophrasti (level) [2] | weed control effect, Bidens pilosa (level) [2] | weed control effect, Digitaria sanguinalis (level) [2] | weed control effect, Echinochloa crus-galli (level) [2] | weed control effect, Rorippa indica (level) [2] | weed control effect, Setaria viridis (level) [2] | Resistance of the weeds to the herbicide [3]
Cc1nn(C)cc1C(=O)Oc1c(C(=O)c2ccc(S(C)(=O)=O)c(COCC(F)(F)F)c2Cl)c(C)nn1C [Compound 29] | 10 | 9 (Level 9: above 90% growth inhibition rate) | 8 (Level 8: above 80% growth inhibition rate) | 0 | 0 | 3 (Level 3: above 20% growth inhibition rate) | 0 | 8 (Level 8: above 80% growth inhibition rate) | 5 (Level 5: above 50% growth inhibition rate) | 9 (Level 9: above 90% growth inhibition rate) | 8 (Level 8: above 80% growth inhibition rate) | 4 (Level 4: above 30% growth inhibition rate) | 10 | 
CCOC(=O)c1cnn(C)c1S(=O)(=O)NC(=O)Nc1nc(OC)cc(OC)n1 [pyrazosulfuron-ethyl] |  |  |  |  |  |  |  |  |  |  |  |  |  | resistant
